Experimental data published in patent US11535599B2, “Benzisoxazole derivative” (Sumitomo Pharma Co., Ltd., priority 2020, dated 2022).

Tests used:
[1] = tested on: reserpine-induced Parkinson's disease model mouse; assay: Potentiating effect of levodopa-induced hyperactivity in reserpine-induced Parkinson's disease model mouse; format: in vivo; conditions: Examples 12.5 or 25 mg/kg oral; rasagiline 3 or 10 mg/kg; with levodopa 200 mg/kg i.p.
mouse elevated plus maze = assay: Anxiolytic-like action, mouse elevated plus maze; format: in vivo; conditions: Example 13 at 10 mg/kg or more oral; diazepam 3 mg/kg oral
Method: In Parkinson's disease, psychiatric symptom (e.g. depression, anxiety) is known as one of its non-motor symptoms. The anxiolytic-like action of the present invention was evaluated with mouse elevated plus maze. The present test is broadly used as a method for evaluating the anxiolytic-like action of agents.
In the present test, male Crl: CD1 (ICR) mice (CHARLES RIVER LABORATORIES JAPAN, INC.) were used. One hour before the test was started, the solvent, the compound of Example 13 (3 mg/kg, 10 mg/kg, 30 mg/kg, or 100 mg/kg), or diazepam (3 mg/kg) which is a positive control was orally administered to the mouse. The mouse was put into a center platform in which the illuminance was adjusted to 80-100 Lux level. The head of the mouse was set toward the closed arm, and then the test was started. The mouse was allowed to explore freely for 5 minutes. When ⅓ of the mouse's body entered the arm, the behavior was counted as arm entry. And, the time spent in the open arm was also measured with a stopwatch. The ratio of the count of the open arm entry per the count of the all arm entry, and the ratio of the time spent in the open arm per the total exploration time (5 minutes) were calculated. […] Thus, the ratio of the count of the open arm entry per the count of the all arm entry, and the ratio of the time spent in the open arm per the total exploration time tend to be small values. When these ratios in the drug administration group are higher than those of the solvent administration group, it can be judged that the drug has anxiolytic-like action.

[2] = tested on: rat sleep electroencephalogram; assay: Effect for sleeping stage/waking stage, rat sleep electroencephalogram; format: in vivo; conditions: 30 or 100 mg/kg oral, 6 hours
Method: As non-motor symptoms in Parkinson's disease, sleep disorder such as insomnia (e.g. difficulty falling asleep, nocturnal awakening, etc.) is known. It is important to improve sleeping quality. The effect of the present compounds for sleep was evaluated by measuring rat sleep electroencephalogram.
In the present test, male Crlj: WI rats (CHARLES RIVER LABORATORIES JAPAN, INC.) were used. Under anesthesia, a radiofrequency transmitter (HD-S02, Data Science International, Inc.) was set in the peritoneal cavity of the rat, and two electrodes for measuring electroencephalogram were stereotaxically placed in the skull (frontoparietal electrode: 2 mm ahead of bregma and 2 mm left from midline, parietal electrode: 5 mm behind bregma and 2 mm right from midline). An electrode for recording electromyogram was placed in the dorsal neck muscle. After more than one week as postoperative recuperation period, the rats were used in the sleep electroencephalogram measurement.
The compound of Example 13 (30 mg/kg or 100 mg/kg) was orally administered to the rat just before light phase, and the electroencephalogram and electromyogram of the rat were recorded at 500 Hz for 6 hours in a breeding cage in a soundproof box. The recorded signals were classified to 3 stages, wake/REM sleep/non-REM sleep every 10 seconds with a sleep analysis program Sleepsign (version 3, Kissei Comtec Co., Ltd.), and aggregated. Specifically, when the myoelectric response was beyond the threshold defined for each individual animal, it was classified as wake, and otherwise it was classified as sleep. In the sleep, when the power value at delta wave (0.5-4 Hz) of EEG-frequency component was beyond the threshold defined for each individual beforehand, it was classified as non-REM sleep. When the power value at theta wave (4-8 Hz) was beyond 40% of the total power value at 0.5-80 Hz, it was classified as REM sleep.

[3] = tested on: oxaliplatin chemotherapy-induced peripheral neuropathy model; assay: Anti-allodynia effect in chemotherapy-induced peripheral neuropathy model (acetone test); format: in vivo, rat; conditions: Example 13 100 mg/kg oral once a day 17 times; duloxetine 30 mg/kg oral single
Source text: As one of chemotherapy-induced peripheral neuropathy, sensory disturbance due to neuropathy caused by a platinating agent that is an anticancer agent such as cisplatin and oxaliplatin is known, and the symptom is difficult to be recovered even after the medication is discontinued. The therapeutic effect for sensory disturbance caused by repetitive administration of oxaliplatin was studied in the present test.
To male Crl: CD (SD) rats (7 weeks old) (CHARLES RIVER LABORATORIES JAPAN, INC.), oxaliplatin (5 mg/kg) was intraperitoneally administered for the two consecutive days in a week, totally 6 times, to prepare chemotherapy-induced peripheral neuropathy models. The compound of Example 13 (100 mg/kg) was repeatedly orally administered once a day, totally 17 times. […] In the acetone test, 0.1 mL of acetone was sprayed to the foot sole of the rat hind paw, and the reaction was evaluated according a scoring (Cold Score). When there was no reaction for 20 seconds after spraying acetone, Score 0 was recorded and the observation was stopped. When there was any reaction for the 20 seconds, the observation was continued until 40 seconds after spraying, and the score was recorded according to the evaluation scale. The acetone spray was done twice each for right and left hind paws, and the total score was calculated. […]

CC(c1noc2ccccc12)S(N)(=O)=O (stereo not drawn) [Example 1, 1-(Benzo[d]isoxazol-3-yl)ethane-1-sulfonamide]
levodopa-induced hyperactivity (total movement, 90 minutes) [1]: significantly-potentiating effect of levodopa-induced hyperactivity

C[C@H](c1noc2ccccc12)S(N)(=O)=O [Example 13, (1R)-1-(1,2-benzoxazol-3-yl)ethane-1-sulfonamide]
count of the open arm entry (mouse elevated plus maze): increase significantly | time spent in the open arm (mouse elevated plus maze): increase significantly | REM sleep latency [2]: tended to elongate | REM sleep time [2]: significantly shortened | non-REM sleep latency [2]: significantly shortened | non-REM sleep time [2]: increased | waking time [2]: significantly shortened | Cold Score in acetone test [3]: significantly lower Cold Score
